Values after ≈ are worked out from the molar mass of the structure shown. Positions of bridges follow the written chain, without caps; N, C: chain ends. Non-standard residues stand in square brackets, D forms with d. Residues, ends and D or L forms follow the SMILES beside them. Groups on a side chain read outwards from the residue. Chains are numbered I, II in the order given. Dab = NCC[C@H](N)C(=O)O; Dap = NC[C@H](N)C(=O)O
Each molecule was assayed on Pseudomonas aeruginosa (strain PA01) (assay: microbe, parasite or virus in culture). Conditions: strain.
Type: cell-based
Experimental: Antimicrobial activity was assayed against Bacillus subtilis (strain BR151), Escherichia coli (strain DH5α) and Pseudomonas aeruginosa (strain PA01). Microdilution broth method was used to determine the minimal inhibitory concentration (MIC). A colony of bacteria was grown in LB-medium overnight at 37° C. The concentration was quantified by measuring absorbance at 600 nm and diluted to OD600=0.1 (1×10^8 CFU/mL). The samples were prepared as stock solutions of 1 mg mL^−1 in H2O and diluted serially by ⅔ in nutrient LB in a 96-well microtiterplate (Cornstar, polypropylene, untreated). The sample solutions (50 μL) were mixed with the diluted bacterial suspension with an OD600 nm of 0.001 (50 μL). […] The plates were incubated at 37° C. until satisfactory growth (18-24 h). For each test, two columns of the plate were kept for sterility control (SC, broth only) and growth control (GC, broth with bacterial inoculums, no antibiotics). 10 μL of a solution of MTT (0.1% in H2O) was added to each well. The minimal inhibitory concentration (MIC) was defined as the lowest concentration of the antimicrobial substance (peptide dendrimer) that inhibited visible growth of the tested bacteria (yellow) with the unaided eye. For microbiological study the linear peptide LysTyrLysLysAlaLeuLysLysLeuAlaLysLeuLeu (SEQ ID No. 1) was used as reference.
All peptides were tested for their activity against P. aeruginosa PAO1 in a broth dilution assay (Wiegand, I. et al., 2008, Nat. Protoc., 3, 163-75; Clinical and Laboratory Standards Institute document M7-A7 7th Edition) to determine the MIC (minimal inhibitory concentration) values. The stock solutions of the peptide dendrimers were diluted serially by ⅔ in nutrient LB in 96-well microtiter plates. Bacteria were grown in nutrient LB overnight at 37° C. After dilution the bacteria were added to the peptides and incubated overnight (18-24 h) at 37° C. […] The position of the amino acids between the branching units seems to be optimal if the hydrophobic amino acid is the first counting from C-terminus and the charged one is on the second position. Introducing Ala as additional hydrophobic amino acid reduces activity (MSt-120). […] Also assembling charged or hydrophobic sections between the branching units leads to loss of activity whereas altering L-amino acids to D-amino acids maintains activity leading to the hypothesis that the mechanism of action should not be receptor mediated.

Point of comparison: CC(C)C[C@H](NC(=O)[C@H](CCCNC(=N)N)NC(=O)[C@H](CCCCNC(=O)[C@H](CC(C)C)NC(=O)[C@H](CCCNC(=N)N)NC(=O)[C@H](CCCCNC(=O)[C@H](CC(C)C)NC(=O)[C@H](CCCNC(=N)N)NC(=O)CSC[C@H](NC(=O)[C@H](CC(C)C)NC(=O)[C@H](CCCNC(=N)N)NC(=O)[C@H](CCCCNC(=O)[C@H](CC(C)C)NC(=O)[C@@H](N)CCCNC(=N)N)NC(=O)[C@H](CC(C)C)NC(=O)[C@@H](N)CCCNC(=N)N)C(N)=O)NC(=O)[C@H](CC(C)C)NC(=O)[C@H](CCCNC(=N)N)NC(=O)CSC[C@H](NC(=O)[C@H](CC(C)C)NC(=O)[C@H](CCCNC(=N)N)NC(=O)[C@H](CCCCNC(=O)[C@H](CC(C)C)NC(=O)[C@@H](N)CCCNC(=N)N)NC(=O)[C@H](CC(C)C)NC(=O)[C@@H](N)CCCNC(=N)N)C(N)=O)NC(=O)[C@H](CC(C)C)NC(=O)[C@H](CCCNC(=N)N)NC(=O)[C@H](CCCCNC(=O)[C@H](CC(C)C)NC(=O)[C@H](CCCNC(=N)N)NC(=O)CSC[C@H](NC(=O)[C@H](CC(C)C)NC(=O)[C@H](CCCNC(=N)N)NC(=O)[C@H](CCCCNC(=O)[C@H](CC(C)C)NC(=O)[C@@H](N)CCCNC(=N)N)NC(=O)[C@H](CC(C)C)NC(=O)[C@@H](N)CCCNC(=N)N)C(N)=O)NC(=O)[C@H](CC(C)C)NC(=O)[C@H](CCCNC(=N)N)NC(=O)CSC[C@H](NC(=O)[C@H](CC(C)C)NC(=O)[C@H](CCCNC(=N)N)NC(=O)[C@H](CCCCNC(=O)[C@H](CC(C)C)NC(=O)[C@@H](N)CCCNC(=N)N)NC(=O)[C@H](CC(C)C)NC(=O)[C@@H](N)CCCNC(=N)N)C(N)=O)C(N)=O [CCS-27, (RL)8(KRLCxRL)4(KRL)2KRL], “MIC P. aeruginosa PAO1” value 12 µg/mL (≈ 1.8 µM). Against it:
- CC(C)C[C@H](NC(=O)[C@H](CCCCN)NC(=O)[C@H](CC(C)C)NC(=O)[C@H](CCCCNC(=O)[C@H](CC(C)C)NC(=O)[C@H](CCCCN)NC(=O)[C@H](CC(C)C)NC(=O)[C@H](CCCCNC(=O)[C@H](CC(C)C)NC(=O)[C@H](CCCCN)NC(=O)[C@H](CC(C)C)NC(=O)[C@H](CCCCNC(=O)[C@H](CC(C)C)NC(=O)[C@H](CCCCN)NC(=O)[C@@H](N)CC(C)C)NC(=O)[C@H](CC(C)C)NC(=O)[C@H](CCCCN)NC(=O)[C@@H](N)CC(C)C)NC(=O)[C@H](CC(C)C)NC(=O)[C@H](CCCCN)NC(=O)[C@H](CC(C)C)NC(=O)[C@H](CCCCNC(=O)[C@H](CC(C)C)NC(=O)[C@H](CCCCN)NC(=O)[C@@H](N)CC(C)C)NC(=O)[C@H](CC(C)C)NC(=O)[C@H](CCCCN)NC(=O)[C@@H](N)CC(C)C)NC(=O)[C@H](CC(C)C)NC(=O)[C@H](CCCCN)NC(=O)[C@H](CC(C)C)NC(=O)[C@H](CCCCNC(=O)[C@H](CC(C)C)NC(=O)[C@H](CCCCN)NC(=O)[C@H](CC(C)C)NC(=O)[C@H](CCCCNC(=O)[C@H](CC(C)C)NC(=O)[C@H](CCCCN)NC(=O)[C@@H](N)CC(C)C)NC(=O)[C@H](CC(C)C)NC(=O)[C@H](CCCCN)NC(=O)[C@@H](N)CC(C)C)NC(=O)[C@H](CC(C)C)NC(=O)[C@H](CCCCN)NC(=O)[C@H](CC(C)C)NC(=O)[C@H](CCCCNC(=O)[C@H](CC(C)C)NC(=O)[C@H](CCCCN)NC(=O)[C@@H](N)CC(C)C)NC(=O)[C@H](CC(C)C)NC(=O)[C@H](CCCCN)NC(=O)[C@@H](N)CC(C)C)C(N)=O [MIS-08, (LKL)8(KLKL)4(KLKL)2(KLKL)] (I: H-LKLK([Leu-Lys-Leu])LKLKLKLKLKL-NH2 / II: H-LKLK([Leu-Lys-Leu])LKLKLKL / III: H-LKLK([Leu-Lys-Leu])LKL / IV: H-LKLK([Leu-Lys-Leu])LKL; amide I:8-IV:C, I:12-II:C, II:8-III:C) — 3-fold lower, 4 µg/mL (≈ 0.642 µM)
- CC(C)C[C@H](NC(=O)[C@H](CCCCN)NC(=O)[C@H](CNC(=O)[C@H](CC(C)C)NC(=O)[C@H](CCCCN)NC(=O)[C@H](CNC(=O)[C@H](CC(C)C)NC(=O)[C@@H](N)CCCCN)NC(=O)[C@H](CC(C)C)NC(=O)[C@@H](N)CCCCN)NC(=O)[C@H](CC(C)C)NC(=O)[C@H](CCCCN)NC(=O)[C@H](CNC(=O)[C@H](CC(C)C)NC(=O)[C@@H](N)CCCCN)NC(=O)[C@H](CC(C)C)NC(=O)[C@@H](N)CCCCN)C(N)=O [MSt-138, (KL)4(BKL)2(BKL)] (I: H-KL[Dap]([Leu-Lys])KL[Dap]KL-NH2 / II: H-KL[Dap]([Leu-Lys])KL; amide I:6-II:C) — 6-fold lower, 2 µg/mL (≈ 1.02 µM)
- CC(C)C[C@H](NC(=O)[C@H](CC(C)C)NC(=O)[C@H](CCCCN)NC(=O)[C@H](CCCCNC(=O)[C@H](CC(C)C)NC(=O)[C@H](CC(C)C)NC(=O)[C@H](CCCCN)NC(=O)[C@H](CCCCNC(=O)[C@H](CC(C)C)NC(=O)[C@H](CC(C)C)NC(=O)[C@H](CCCCN)NC(=O)[C@H](CCCCNC(=O)[C@H](CC(C)C)NC(=O)[C@H](CC(C)C)NC(=O)[C@@H](N)CCCCN)NC(=O)[C@H](CC(C)C)NC(=O)[C@H](CC(C)C)NC(=O)[C@@H](N)CCCCN)NC(=O)[C@H](CC(C)C)NC(=O)[C@H](CC(C)C)NC(=O)[C@H](CCCCN)NC(=O)[C@H](CCCCNC(=O)[C@H](CC(C)C)NC(=O)[C@H](CC(C)C)NC(=O)[C@@H](N)CCCCN)NC(=O)[C@H](CC(C)C)NC(=O)[C@H](CC(C)C)NC(=O)[C@@H](N)CCCCN)NC(=O)[C@H](CC(C)C)NC(=O)[C@H](CC(C)C)NC(=O)[C@H](CCCCN)NC(=O)[C@H](CCCCNC(=O)[C@H](CC(C)C)NC(=O)[C@H](CC(C)C)NC(=O)[C@H](CCCCN)NC(=O)[C@H](CCCCNC(=O)[C@H](CC(C)C)NC(=O)[C@H](CC(C)C)NC(=O)[C@@H](N)CCCCN)NC(=O)[C@H](CC(C)C)NC(=O)[C@H](CC(C)C)NC(=O)[C@@H](N)CCCCN)NC(=O)[C@H](CC(C)C)NC(=O)[C@H](CC(C)C)NC(=O)[C@H](CCCCN)NC(=O)[C@H](CCCCNC(=O)[C@H](CC(C)C)NC(=O)[C@H](CC(C)C)NC(=O)[C@@H](N)CCCCN)NC(=O)[C@H](CC(C)C)NC(=O)[C@H](CC(C)C)NC(=O)[C@@H](N)CCCCN)C(N)=O [MIS-06, (KLL)8(KKLL)4(KKLL)2(KKLL)] (I: H-KLLK([Leu-Leu-Lys])KLLKKLLKKLL-NH2 / II: H-KLLK([Leu-Leu-Lys])KLLKKLL / III: H-KLLK([Leu-Leu-Lys])KLL / IV: H-KLLK([Leu-Leu-Lys])KLL; amide I:8-IV:C, I:12-II:C, II:8-III:C) — within 1.5-fold, 11 µg/mL (≈ 1.77 µM)
- CC(C)C[C@H](NC(=O)[C@H](CCCCN)NC(=O)[C@H](CC(C)C)NC(=O)[C@H](CCCCNC(=O)[C@H](CC(C)C)NC(=O)[C@H](CCCCN)NC(=O)[C@H](CC(C)C)NC(=O)[C@H](CCCCNC(=O)[C@H](CC(C)C)NC(=O)[C@H](CCCCN)NC(=O)[C@H](CCCCNC(=O)[C@H](CC(C)C)NC(=O)[C@@H](N)CCCCN)NC(=O)[C@H](CC(C)C)NC(=O)[C@@H](N)CCCCN)NC(=O)[C@H](CC(C)C)NC(=O)[C@H](CCCCN)NC(=O)[C@H](CCCCNC(=O)[C@H](CC(C)C)NC(=O)[C@@H](N)CCCCN)NC(=O)[C@H](CC(C)C)NC(=O)[C@@H](N)CCCCN)NC(=O)[C@H](CC(C)C)NC(=O)[C@H](CCCCN)NC(=O)[C@H](CC(C)C)NC(=O)[C@H](CCCCNC(=O)[C@H](CC(C)C)NC(=O)[C@H](CCCCN)NC(=O)[C@H](CCCCNC(=O)[C@H](CC(C)C)NC(=O)[C@@H](N)CCCCN)NC(=O)[C@H](CC(C)C)NC(=O)[C@@H](N)CCCCN)NC(=O)[C@H](CC(C)C)NC(=O)[C@H](CCCCN)NC(=O)[C@H](CCCCNC(=O)[C@H](CC(C)C)NC(=O)[C@@H](N)CCCCN)NC(=O)[C@H](CC(C)C)NC(=O)[C@@H](N)CCCCN)C(N)=O [YGO-011, (KL)8(KKL)4(KLKL)2(KLKL)] (I: H-KLK([Leu-Lys])KLKLKLKLKL-NH2 / II: H-KLK([Leu-Lys])KLKLKL / III: H-KLK([Leu-Lys])KL / IV: H-KLK([Leu-Lys])KL; amide I:6-IV:C, I:10-II:C, II:6-III:C) — 4-fold lower, 3 µg/mL (≈ 0.616 µM)
- CC(C)C[C@H](NC(=O)[C@H](CCN)NC(=O)[C@H](CCCCNC(=O)[C@H](CC(C)C)NC(=O)[C@H](CCN)NC(=O)[C@H](CCCCNC(=O)[C@H](CC(C)C)NC(=O)[C@@H](N)CCN)NC(=O)[C@H](CC(C)C)NC(=O)[C@@H](N)CCN)NC(=O)[C@H](CC(C)C)NC(=O)[C@H](CCN)NC(=O)[C@H](CCCCNC(=O)[C@H](CC(C)C)NC(=O)[C@@H](N)CCN)NC(=O)[C@H](CC(C)C)NC(=O)[C@@H](N)CCN)C(N)=O [MSt-201, (DabL)4(KDabL)2(KDabL)] (I: H-[Dab]LK([Leu-Dab])[Dab]LK[Dab]L-NH2 / II: H-[Dab]LK([Leu-Dab])[Dab]L; amide I:6-II:C; N-terminus assumed) — 2.4-fold lower, 5 µg/mL (≈ 2.64 µM)

Reference: patent US10336792B2, “Antimicrobial peptide dendrimers” (priority 2014, dated 2019)
